This passage reports IC50 results from US11339130B1 (Blade Therapeutics, Inc., priority 2016, dated 2022).

Where a name gives a salt, the structure may show the parent alone. Read-outs that look alike come from different tables or passages of the source.

The target in one assay is T1, Human Calpain 9/NS1 (Homo sapiens, UniProt O14815).
T1 sequence (O14815 1-690): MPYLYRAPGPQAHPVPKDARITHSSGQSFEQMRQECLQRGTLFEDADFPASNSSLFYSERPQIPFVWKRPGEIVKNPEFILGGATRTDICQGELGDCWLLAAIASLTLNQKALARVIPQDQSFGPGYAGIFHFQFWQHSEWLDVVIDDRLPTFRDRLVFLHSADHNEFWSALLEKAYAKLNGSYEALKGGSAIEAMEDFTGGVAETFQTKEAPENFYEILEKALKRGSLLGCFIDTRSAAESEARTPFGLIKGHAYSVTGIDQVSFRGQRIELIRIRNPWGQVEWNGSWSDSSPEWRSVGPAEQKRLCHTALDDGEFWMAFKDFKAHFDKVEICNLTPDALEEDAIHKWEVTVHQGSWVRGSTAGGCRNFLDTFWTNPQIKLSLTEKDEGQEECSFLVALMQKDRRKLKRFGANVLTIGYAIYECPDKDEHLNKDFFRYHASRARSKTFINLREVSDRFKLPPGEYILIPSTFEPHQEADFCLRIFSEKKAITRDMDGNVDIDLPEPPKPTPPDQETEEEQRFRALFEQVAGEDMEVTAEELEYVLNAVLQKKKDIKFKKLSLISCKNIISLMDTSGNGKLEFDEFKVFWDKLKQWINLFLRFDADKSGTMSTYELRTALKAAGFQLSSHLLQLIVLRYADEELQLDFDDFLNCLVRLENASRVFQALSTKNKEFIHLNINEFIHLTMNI
T1 sequence (P04632 1-268 partner): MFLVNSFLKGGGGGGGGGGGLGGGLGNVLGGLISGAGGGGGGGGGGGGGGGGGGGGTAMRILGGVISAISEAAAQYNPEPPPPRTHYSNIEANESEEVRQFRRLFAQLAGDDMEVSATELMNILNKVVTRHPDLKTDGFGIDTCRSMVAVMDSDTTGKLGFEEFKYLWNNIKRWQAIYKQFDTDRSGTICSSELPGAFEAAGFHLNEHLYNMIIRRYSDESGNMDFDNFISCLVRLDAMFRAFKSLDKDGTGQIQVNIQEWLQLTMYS
Briefly: Calpain inhibition continuous fluorescence (FRET) assay, Human Calpain 9/NS1. The class given is biochemical. Particulars: read-out: Human Calpain 9/NS1 IC50. In a few lines:
(§1)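 Continuous FRET read (ex 490/em 520 nm, 10 min) of calpain 1, 2 or 9 cleaving an internally quenched 5-FAM peptide, triggered by substrate with CaCl2 after enzyme–inhibitor incubation at ambient 25 °C, pH 7.5 Tris/NaCl/DTT buffer. IC50 from initial rates (1-5 min) via 4-parameter fit.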

For assay [1], the system named is Calpain activity in SH-SY5Y cells. The assay is described as follows: SH-SY5Y + AMC fluorescence assay (Suc-LLVY-AMC substrate). The class given is cell-based.
In assay [2] the test system is Calpain activity in SH-SY5Y cells (SBDP-150). The assay is described as follows: SH-SY5Y Spectrin western blot assay (SBDP-150 breakdown product, A23187-induced). Particulars: Homo sapiens, read-out: SH-SY5Y Spectrin IC50. The class given is cell-based. Background: A western blot detects proteins with antibodies after separation by electrophoresis.
Another assay deals with T2, Human Calpain 1/NS1 (Homo sapiens, UniProt P07384).
T2 sequence (P07384 1-714): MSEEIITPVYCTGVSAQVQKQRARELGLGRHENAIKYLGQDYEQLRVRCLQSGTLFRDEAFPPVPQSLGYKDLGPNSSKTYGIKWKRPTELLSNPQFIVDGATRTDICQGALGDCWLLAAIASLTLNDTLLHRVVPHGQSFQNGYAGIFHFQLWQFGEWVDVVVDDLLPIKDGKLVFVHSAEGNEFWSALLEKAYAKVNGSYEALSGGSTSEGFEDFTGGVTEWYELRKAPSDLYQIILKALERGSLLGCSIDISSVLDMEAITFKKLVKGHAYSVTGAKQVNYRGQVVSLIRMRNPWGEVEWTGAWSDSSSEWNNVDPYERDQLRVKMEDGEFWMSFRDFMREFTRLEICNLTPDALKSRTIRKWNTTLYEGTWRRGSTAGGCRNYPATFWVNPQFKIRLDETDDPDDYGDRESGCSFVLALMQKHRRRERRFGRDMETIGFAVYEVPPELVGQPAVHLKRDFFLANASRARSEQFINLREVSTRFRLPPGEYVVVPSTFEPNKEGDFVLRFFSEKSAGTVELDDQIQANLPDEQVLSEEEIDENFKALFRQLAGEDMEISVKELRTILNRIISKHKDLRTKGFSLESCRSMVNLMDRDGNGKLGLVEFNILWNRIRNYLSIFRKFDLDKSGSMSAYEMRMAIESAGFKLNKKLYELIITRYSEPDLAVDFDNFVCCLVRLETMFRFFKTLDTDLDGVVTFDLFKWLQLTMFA
T2 sequence (P04632 1-268 partner): T1 sequence (P04632 1-268 partner)
Briefly: Calpain inhibition continuous fluorescence (FRET) assay, Human Calpain 1/NS1. The format is biochemical. The conditions noted are these: read-out: Human Calpain 1/NS1 IC50. In a few lines: as §1

The next assay concerns the target T3, Human Calpain 2/NS1 (Homo sapiens, UniProt P17655).
T3 sequence (P17655 1-700): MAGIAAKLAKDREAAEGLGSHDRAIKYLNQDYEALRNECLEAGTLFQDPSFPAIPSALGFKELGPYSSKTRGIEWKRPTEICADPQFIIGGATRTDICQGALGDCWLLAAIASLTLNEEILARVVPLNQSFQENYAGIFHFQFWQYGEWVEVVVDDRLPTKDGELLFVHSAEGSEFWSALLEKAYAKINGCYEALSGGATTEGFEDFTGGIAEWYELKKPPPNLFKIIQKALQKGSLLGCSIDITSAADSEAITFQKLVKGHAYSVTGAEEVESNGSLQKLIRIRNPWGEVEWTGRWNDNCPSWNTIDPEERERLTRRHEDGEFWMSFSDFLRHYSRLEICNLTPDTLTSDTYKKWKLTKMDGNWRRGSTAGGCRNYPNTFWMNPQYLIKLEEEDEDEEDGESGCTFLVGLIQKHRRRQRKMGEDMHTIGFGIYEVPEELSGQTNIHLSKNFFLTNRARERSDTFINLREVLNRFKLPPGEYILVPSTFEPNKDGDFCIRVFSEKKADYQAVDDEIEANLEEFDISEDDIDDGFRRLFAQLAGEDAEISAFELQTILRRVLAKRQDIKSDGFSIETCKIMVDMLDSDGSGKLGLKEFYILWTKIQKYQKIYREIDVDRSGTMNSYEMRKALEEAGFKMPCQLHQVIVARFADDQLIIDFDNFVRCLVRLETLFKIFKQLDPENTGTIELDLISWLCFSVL
T3 sequence (P04632 1-268 partner): T1 sequence (P04632 1-268 partner)
The assay is described as follows: Calpain inhibition continuous fluorescence (FRET) assay, Human Calpain 2/NS1. The format is biochemical. Particulars: read-out: Human Calpain 2/NS1 IC50. In a few lines:
as §1

Setting [3] is: SH-SY5Y cells, A23187-induced SBDP-150, western blot.
Setting [4] is: Column E, read-out: SH-SY5Y + AMC IC50.
The mark [5] stands for this setting: Column D, SH-SY5Y cells, A23187-induced SBDP-150.

`CC#Cc1nn(-c2ccccc2)cc1C(=O)NC(Cc1ccccc1)C(=O)C(N)=O` (stereo not drawn) [Compound 562, N-(4-amino-3,4-dioxo-1-phenylbutan-2-yl)-1-phenyl-3-(prop-1-yn-1-yl)-1H-pyrazole-4-carb oxamide]: the IC50 is greater than 10 µM on Human Calpain 9/NS1; less than 10 µM in assay [1] (read-out: SH-SY5Y + AMC IC50); greater than 25 µM in assay [2] (setting [3]); greater than 10 µM at Human Calpain 1/NS1; greater than 10 µM on Human Calpain 2/NS1.
Consider `COc1ccc(F)c(-c2nn(C)cc2C(=O)NC(Cc2ccccc2)C(=O)C(N)=O)c1` (stereo not drawn) [Compound 507, N-(4-amino-3,4-dioxo-1-phenylbutan-2-yl)-3-(2-fluoro-5-methoxyphenyl)-1-methyl-1H-pyrazole-4-carboxamide], for which the IC50 at Human Calpain 9/NS1 was less than 3 µM; in assay [1] (read-out: SH-SY5Y + AMC IC50), less than 10 µM; in assay [2] (setting [3]), 10 to 25 µM; at Human Calpain 1/NS1, less than 3 µM; on Human Calpain 2/NS1 it was less than 3 µM.
Turning to `Cc1nc(-c2ccccc2)c(C(=O)N[C@H](C=O)Cc2ccccc2)o1` [Compound 322, (S)-2-methyl-N-(1-oxo-3-phenylpropan-2-yl)-4-phenyloxazole-5-carboxamide], the IC50 on Human Calpain 9/NS1 was less than 3 µM; in assay [1] (read-out: SH-SY5Y + AMC IC50), greater than 25 µM; in assay [2] (setting [3]) it was 10 to 25 µM; at Human Calpain 1/NS1, less than 3 µM; at Human Calpain 2/NS1, less than 3 µM.
As for `NC(=O)C(=O)[C@H](Cc1ccccc1)NC(=O)c1c[nH]nc1-c1ccccc1` [Compound 30, (S)—N-(4-amino-3,4-dioxo-1-phenylbutan-2-yl)-3-phenyl-1H-pyrazole-4-carboxamide], the IC50 is less than 3 µM at Human Calpain 9/NS1 (Column C); 10 to 25 µM in assay [1] (setting [4]); less than 10 µM in assay [2] (setting [5]); less than 3 µM on Human Calpain 1/NS1 (Column A); less than 3 µM on Human Calpain 2/NS1 (Column B).
As to `Cc1cc(C(=O)N[C@@H](Cc2ccccc2)C(=O)C(N)=O)n(-c2ccc(CNC(=O)OCc3ccccc3)cc2)n1` [Compound 153, Benzyl (S)-(4-(5-((4-amino-3,4-dioxo-1-phenylbutan-2-yl)carbamoyl)-3-methyl-1H-pyrazol-1-yl)benzyl)carbamate], the IC50 is less than 3 µM at Human Calpain 9/NS1 (Column C); greater than 25 µM in assay [1] (read-out: SH-SY5Y + AMC IC50, Column E); less than 10 µM in assay [2] (SH-SY5Y); less than 3 µM on Human Calpain 1/NS1 (Column A); less than 3 µM on Human Calpain 2/NS1 (Column B).
With `Cn1cc(C(=O)NC(Cc2ccccc2)C(=O)C(N)=O)c(-c2ccc3ccccc3c2)n1` (stereo not drawn) [Compound 571, N-(4-amino-3,4-dioxo-1-phenylbutan-2-yl)-1-methyl-3-(naphthalen-2-yl)-1H-pyrazole-4-carboxamide], the IC50 was less than 3 µM at Human Calpain 9/NS1; greater than 25 µM in assay [1] (read-out: SH-SY5Y + AMC IC50); greater than 25 µM in assay [2] (setting [3]); less than 3 µM on Human Calpain 1/NS1; less than 3 µM at Human Calpain 2/NS1.
Consider `CCN(CC)Cc1ccc(Oc2ccc(-n3nc(C)cc3C(=O)NC(Cc3ccccc3)C(=O)C(N)=O)cc2)cc1` (stereo not drawn) [Compound 441, N-(4-amino-3,4-dioxo-1-phenylbutan-2-yl)-1-(4-(4-((diethylamino)methyl)phenoxy)phenyl)-3-methyl-1H-pyrazole-5-carboxamide hydrochloride], for which the IC50 is greater than 10 µM on Human Calpain 9/NS1; greater than 25 µM in assay [1] (read-out: SH-SY5Y + AMC IC50); greater than 25 µM in assay [2] (setting [3]); greater than 10 µM at Human Calpain 1/NS1; greater than 10 µM at Human Calpain 2/NS1.
For the compound `CCc1cc(C(=O)N[C@@H](Cc2ccccc2)C(=O)C(N)=O)n(-c2ccccc2)n1` [Compound 33, (S)—N-(4-amino-3,4-dioxo-1-phenylbutan-2-yl)-3-ethyl-1-phenyl-1H-pyrazole-5-carboxamide], the IC50 at Human Calpain 9/NS1 (Column C) is less than 3 µM; in assay [1] (setting [4]) it was less than 10 µM; in assay [2] (setting [5]) it was less than 10 µM; on Human Calpain 1/NS1 (Column A), less than 3 µM; on Human Calpain 2/NS1 (Column B), less than 3 µM.
Take `Cn1cc(C(=O)N[C@@H](Cc2ccccc2)C(=O)C(N)=O)c(-c2ccccc2F)n1` [Compound 181, (S)—N-(4-amino-3,4-dioxo-1-phenylbutan-2-yl)-3-(2-fluorophenyl)-1-methyl-1H-pyrazole-4-carboxamide]: the IC50 is less than 3 µM at Human Calpain 9/NS1 (Column C); less than 10 µM in assay [1] (setting [4]); less than 10 µM in assay [2] (setting [5]); less than 3 µM at Human Calpain 1/NS1 (Column A); less than 3 µM at Human Calpain 2/NS1 (Column B).
With `Cn1cc(C(=O)NC(Cc2ccccc2)C(=O)C(N)=O)c(-c2ccnn2C)n1` (stereo not drawn) [Compound 568, N-(4-amino-3,4-dioxo-1-phenylbutan-2-yl)-1,2′-dimethyl-1H,2′H-[3,3′-bipyrazole]-4-carboxamide], the IC50 was less than 3 µM on Human Calpain 9/NS1; less than 10 µM in assay [1] (read-out: SH-SY5Y + AMC IC50); greater than 25 µM in assay [2] (setting [3]); less than 3 µM on Human Calpain 1/NS1; less than 3 µM at Human Calpain 2/NS1.
As to `Cn1cc(C(=O)NC(Cc2ccccc2)C(=O)C(N)=O)c(-c2cncc3ccccc23)n1` (stereo not drawn) [Compound 591, N-(4-amino-3,4-dioxo-1-phenylbutan-2-yl)-3-(isoquinolin-4-yl)-1-methyl-1 h-pyrazole-4-carboxamide], the IC50 on Human Calpain 9/NS1 was less than 3 µM; in assay [1] (read-out: SH-SY5Y + AMC IC50) it was greater than 25 µM; in assay [2] (setting [3]), greater than 25 µM; on Human Calpain 1/NS1, less than 3 µM; on Human Calpain 2/NS1, less than 3 µM.
With `Cc1ccccc1-c1nn(C(F)F)cc1C(=O)NC(Cc1ccccc1)C(=O)C(N)=O` (stereo not drawn) [Compound 382, N-(4-amino-3,4-dioxo-1-phenylbutan-2-yl)-1-(difluoromethyl)-3-(o-tolyl)-1H-pyrazole-4-carboxamide], the IC50 on Human Calpain 9/NS1 was less than 3 µM; in assay [1] (read-out: SH-SY5Y + AMC IC50) it was less than 10 µM; in assay [2] (setting [3]), 10 to 25 µM; on Human Calpain 1/NS1, less than 3 µM; on Human Calpain 2/NS1, less than 3 µM.
